Here are results for four compounds from patent publication US20150374673A1, “Combination Therapy for the Treatment of Nosocomial Pneumonia” (priority 2013, published 2015).

For one experiment, the system named is K. pneumoniae. Kind of experiment: Initial MIC, microbroth dilution (CLSI), avibactam 4 mg/L. It is filed as cell-based. The procedure:
(§1) All MIC determinations including those performed in the checkerboard assay were done in cation-adjusted Mueller-Hinton broth (purchased from Becton Dickinson, Oxford UK).
(§2) Initial MIC data were determined by microbroth dilution methods as recommended by CLSI (2012b). Checkerboards were made in accordance with the method given by Pillai et. al., ? Antimicrobial Combinations in Antibiotics, LABORATORY MEDICINE (Lorian Ed., 3rd Ed. (2003)) p. 365-440 as per standard microbroth dilution tests but with agents in combination. […] A final avibactam concentration of 4 mg/L was used throughout the study. Antibacterial agents were combined into microtitre plates using the Evolution III liquid handling system.
On the technique in general: Broth dilution looks for growth in wells or tubes with falling amounts of substance.

Another experiment relates to P. aeruginosa. The experiment is described as above. It is filed as cell-based. The procedure:
as §1, §2

A further experiment concerns E. cloacae. The experiment is described as above. It is filed as cell-based. The text has this: (§3) All MIC determinations including those performed in the checkerboard assay were done in cation-adjusted Mueller-Hinton broth (purchased from Becton Dickinson, Oxford UK). […]
The next experiment relates to E. coli. The description is as above. It is filed as cell-based.
Excerpt: as §3

Experiment [1] deals with S. aureus. The experiment is described as above. It is filed as cell-based.
Excerpt: as §3

Another experiment relates to E. faecalis. The description is as above. It is filed as cell-based. As to conditions: Enterococcus faecalis.
Excerpt: as §3

Experiment [2] has as its system S. aureus. As to the kind of experiment: MIC, CLSI broth microdilution in CAMHB with 0-10% pulmonary surfactant (avibactam fixed at 4 μg/mL in combination). It is filed as cell-based, Staphylococcus aureus. As to conditions: for MIC: Staphylococcus aureus, read-out: MIC. The protocol: The bacterial strains used in this testing were part of the microbiological culture collection housed at AstraZeneca R&D Boston (AstraZeneca Research Collection, designated ARC). The panel of bacterial isolates used for this testing was comprised of five CLSI QC reference strains and the remainder were either recent clinical isolates expressing β-lactamases or isolates from the primary bacterial screening panels.
MIC values were determined using the CLSI broth microdilution methodology with slight variation. Stock compound mother plates were prepared and used to spot 2 μL aliquots of serial 2-fold drug dilutions to columns 1-11 of 96-well daughter plates using a Perkin-Elmer MiniTrak™ MultiPosition dispenser. […] An inoculum volume of 100 μL (5×10E^5 CFU/mL) in CAMHB containing 0, 1, 2.5, 5, or 10% pulmonary surfactant was added using a multichannel Finnpipette® to each well of the 96-well plate.
The minimum inhibitory concentration (MIC) values against each organism/drug combination were determined using broth microdilution methodology according to CLSI guidelines. The recommended reference bacterial strains for each test group and reference compounds were incorporated into each test. For Gram-negatives, the reference bacterial strains were Escherichia coli ATCC 25922, E. coli ATCC 35218, Klebsiella pneumoniae ATCC 700603, and Pseudomonas aeruginosa ATCC 27853. Staphylococcus aureus ATCC 29213 was the reference bacterial strain for the Gram-positives.
MIC values for individual isolates were read visually. The MICs for each compound or combination in pulmonary surfactant was compared to the compound or combination tested in CAMHB alone.

Like-named read-outs stand apart in the source and are kept apart here.

In general, MIC refers to the lowest concentration found to suppress growth.

For Colistin, the MIC was 0.25 µg/mL in the experiment on K. pneumoniae (isolate 9 K. pneumoniae Basal MICs); 0.5 µg/mL in the experiment on K. pneumoniae (isolate 10 K. pneumoniae TEM-4); 0.25 µg/mL with K. pneumoniae (isolate 11 K. pneumoniae CTX-M-15); 0.25 µg/mL with K. pneumoniae (isolate 12 K. pneumoniae SHV-12); 0.25 µg/mL with K. pneumoniae (isolate 13 K. pneumoniae KPC-3); 0.25 µg/mL in the experiment with K. pneumoniae (isolate 14 K. pneumoniae KPC-3). The MIC with K. pneumoniae (isolate 15 K. pneumoniae KPC-2) turned out to be 0.25 µg/mL; in the experiment with P. aeruginosa (isolate 16 P. aeruginosa Basal MICs), 1 µg/mL; in the experiment on P. aeruginosa (isolate 17 P. aeruginosa Derepressed AmpC) it was 0.5 µg/mL; in the experiment on P. aeruginosa (isolate 18 P. aeruginosa Derepressed AmpC) it was 1 µg/mL; with P. aeruginosa (isolate 19 P. aeruginosa PER), 1 µg/mL; with P. aeruginosa (isolate 20 P. aeruginosa KPC-2) it was 1 µg/mL. Also, the MIC came out at 2 µg/mL in the experiment with P. aeruginosa (isolate 21 P. aeruginosa KPC-2); 0.25 µg/mL in the experiment with E. cloacae (isolate 1 E. cloacae Basal MICs); 0.25 µg/mL with E. cloacae (isolate 2 E. cloacae Derepressed AmpC); 0.25 µg/mL in the experiment on E. cloacae (isolate 3 E. cloacae Derepressed AmpC); 0.25 µg/mL in the experiment on E. coli (isolate 4 E. coli Basal MICs); 0.5 µg/mL in the experiment with E. coli (isolate 5 E. coli CTX-M-15). Besides, the MIC in the experiment with E. coli (isolate 6 E. coli TEM-4) amounted to 0.25 µg/mL; in the experiment on E. coli (isolate 7 E. coli SHV-12), 0.5 µg/mL; in the experiment on E. coli (isolate 8 E. coli SHV-2), 0.25 µg/mL.
`CC(=O)NC[C@H]1CN(c2ccc(N3CCOCC3)c(F)c2)C(=O)O1` [Linezolid]: the MIC stood at 2 µg/mL in the experiment on S. aureus [1] (Staphylococcus aureus, isolate 22 S. aureus Basal MICs, read-out: MIC); 2 µg/mL in the experiment on S. aureus [1] (Staphylococcus aureus, isolate 23 S. aureus Basal MICs, Penicillinase+, read-out: MIC); 2 µg/mL with S. aureus [1] (Staphylococcus aureus, isolate 24 S. aureus Basal MICs, Penicillinase+, read-out: MIC); 1 µg/mL with E. faecalis (isolate 25 E. faecalis Basal MICs, read-out: MIC); 2 µg/mL in the experiment with E. faecalis (isolate 26 E. faecalis Basal MICs, read-out: MIC); 2 µg/mL with E. faecalis (isolate 27 E. faecalis Basal MICs, read-out: MIC).
For `CN[C@H](CC(C)C)C(=O)N[C@H]1C(=O)N[C@@H](CC(N)=O)C(=O)N[C@H]2C(=O)N[C@H]3C(=O)N[C@H](C(=O)N[C@H](C(=O)O)c4cc(O)cc(O)c4-c4cc3ccc4O)[C@H](O)c3ccc(c(Cl)c3)Oc3cc2cc(c3O[C@@H]2O[C@H](CO)[C@@H](O)[C@H](O)[C@H]2O[C@H]2C[C@](C)(N)[C@H](O)[C@H](C)O2)Oc2ccc(cc2Cl)[C@H]1O` [Vancomycin], the MIC in the experiment with S. aureus [1] (Staphylococcus aureus) stood at 1 µg/mL; in the experiment with S. aureus [1] (isolate 23 S. aureus Basal MICs, Penicillinase+) it was 1 µg/mL; with S. aureus [1] (isolate 24 S. aureus Basal MICs, Penicillinase+) it was 1 µg/mL; with E. faecalis (isolate 25 E. faecalis Basal MICs) it was 1 µg/mL; with E. faecalis (isolate 26 E. faecalis Basal MICs), 2 µg/mL; with E. faecalis (isolate 27 E. faecalis Basal MICs), 2 µg/mL.
For `CCCCCCCCCC(=O)N[C@@H](Cc1c[nH]c2ccccc12)C(=O)N[C@H](CC(N)=O)C(=O)N[C@@H](CC(=O)O)C(=O)N[C@@H]1C(=O)NCC(=O)N[C@@H](CCCN)C(=O)N[C@@H](CC(=O)O)C(=O)N[C@H](C)C(=O)N[C@@H](CC(=O)O)C(=O)NCC(=O)N[C@H](CO)C(=O)N[C@@H]([C@H](C)CC(=O)O)C(=O)N[C@@H](CC(=O)c2ccccc2N)C(=O)O[C@@H]1C` [daptomycin], the “MIC increase in pulmonary surfactant” value in the experiment on S. aureus [2] (S. aureus, 1% pulmonary surfactant) was 32 fold. Moreover, the MIC in the experiment on S. aureus [2] (ATCC29213, S. aureus ARC12 (CLSI QC strain, ATCC 29213), surfactant 0%) is 0.5 µg/mL; in the experiment on S. aureus [2] (ATCC29213, S. aureus ARC12 (CLSI QC strain, ATCC 29213), surfactant 1%) it was 16 µg/mL; in the experiment with S. aureus [2] (ATCC29213, S. aureus ARC12 (CLSI QC strain, ATCC 29213), surfactant 2.5%) it was 64 µg/mL; in the experiment on S. aureus [2] (ATCC29213, S. aureus ARC12 (CLSI QC strain, ATCC 29213), surfactant 5%), above 64 µg/mL; with S. aureus [2] (ATCC29213, S. aureus ARC12 (CLSI QC strain, ATCC 29213), surfactant 10%) it was 64 µg/mL; in the experiment on S. aureus [2] (MRSA, S. aureus ARC516 (MRSA, quinolone-resistant), surfactant 0%), 0.5 µg/mL. Besides, the MIC with S. aureus [2] (MRSA, S. aureus ARC516 (MRSA, quinolone-resistant), surfactant 1%) is 16 µg/mL; with S. aureus [2] (MRSA, S. aureus ARC516 (MRSA, quinolone-resistant), surfactant 2.5%), 64 µg/mL; with S. aureus [2] (MRSA, S. aureus ARC516 (MRSA, quinolone-resistant), surfactant 5%), above 64 µg/mL; in the experiment with S. aureus [2] (MRSA, S. aureus ARC516 (MRSA, quinolone-resistant), surfactant 10%) it was above 64 µg/mL.
